Assay results published in patent US20080305186A1, “Method and Composition for the Treatment of Cardiac Hypertrophy” (BOARD OF REGENTS, THE UNIVERSITY OF TEXAS SYSTEM, priority 2007, published 2008).

Test system: cardiac gene expression
Experiment: Microarray analysis of cardiac gene expression (GeneChip Mouse Genome 430 2.0)
Assay type: in vivo, mice
Experimental: Microarray Sample Preparation and Analysis. Animal hearts were rapidly removed, and the atria and right ventricles were cut and immediately plunged into TRIzol Reagent (Life Technologies). Total RNA was isolated following the manufacturer's instructions, purified by phenol-chloroform extraction and then ethanol precipitation, and 20 μg further processed for microarray analysis. Briefly, cDNA synthesis, in vitro transcription, and labeling and fragmentation to produce the oligonucleotide probes were performed as instructed by the GeneChip manufacturer (Affymetrix). The probes were first hybridized to a test array (Affymetrix) and then to the GeneChip Mouse Genome 430 2.0 Array, using the GeneChip Hybridization Oven 640. The chips were washed in a GeneChip Fluidics Station 450 (Affymetrix), and the results were visualized with a GeneChip G7 scanner (Affymetrix). RMA normalization, pairwise comparisons, Student's t test and Benjamini and Hochberg correction were subsequently performed using GeneSifter (VizX Labs, Seattle, Wash.) and Spotfire DecisionSite 8.3 (Spotfire, Inc., Somerville, Mass.).
Effects on Gene Expression Profile. […] One mouse heart was used for each array, and was performed in triplicate, generating a total of 12 arrays. GeneSifter was used to perform RMA normalization, pairwise comparisons of averaged signal intensity values, and Student's t-test with Benjamini and Hochberg correction, and Spotfire was used to perform pairwise comparisons. […] Additionally, genes that were altered between any two N or cardiac hypertrophy samples were removed, as these alterations most likely represented normal variations between mice.

[1] = heart, drug + isoproterenol vs isoproterenol only
[2] = mouse heart, vs isoproterenol only (CH), CH vs normal 1.6
[3] = mouse heart, vs isoproterenol only (CH), CH vs normal 1.7
[4] = mouse heart, vs isoproterenol only (CH), CH vs normal 1.8
[5] = mouse heart, vs isoproterenol only (CH), CH vs normal 1.9
[6] = mouse heart, vs isoproterenol only (CH), CH vs normal 2.0
[7] = mouse heart, vs isoproterenol only (CH), CH vs normal 2.1
[8] = mouse heart, vs isoproterenol only (CH), CH vs normal 2.2

SMILES: C[C@H]1c2cccc(O)c2C(=O)C2=C(O)[C@]3(O)C(=O)C(C(N)=O)=C(O)[C@@H](N(C)C)[C@@H]3[C@@H](O)[C@@H]21 [doxycycline]
- FC EGF, latrophilin seven transmembrane domain containing 1 (Eltd1) (GenBank NM_133222, vs mice given only isoproterenol): −1.7
- FC ERBB receptor feedback inhibitor 1 (Errifi1) (GenBank NM_133753, vs mice given only isoproterenol): −2.7
- FC F-box only protein 31 (Fboxo31) (GenBank NM_133765, vs mice given only isoproterenol): −2.4
- FC Ras homolog gene family, member U (Arhu) (Rhou) (GenBank NM_133955, vs mice given only isoproterenol): −2.5
- FC Peroxisomal biogenesis factor 12 (Pex12) (GenBank NM_134025, vs mice given only isoproterenol): −2.4
- FC PHD finger protein 21A (Phf21a) (GenBank NM_138755, vs mice given only isoproterenol): 2.1
- FC Glutamate-ammonia ligase (Glu1) (GenBank U09114, vs mice given only isoproterenol): −3.5
- FC Gem GTPase (Gem) (GenBank U10551, vs mice given only isoproterenol): −2.8
- FC P19-protein tyrosine phosphatase (Ptpn12) (GenBank X63440, vs mice given only isoproterenol): −1.5
- Cyclin G2 (Ccng2), Microarray FC [1]: −3.1 FC
- Cyclin-dependent kinase inhibitor 1A (p21) (Cdkn1a), Microarray FC [1]: −6.5 FC
- Cytokine inducible SH2-containing protein 3 (Socs3), Microarray FC [1]: −4.9 FC
- DNA-damage-inducible transcript 4 (Ddit4), Microarray FC [1]: −5.6 FC
- GATA binding protein 4 (Gata4), Microarray FC [1]: 2.7 FC
- Gem GTPase (Gem), Microarray FC [1]: −2.8 FC
- Lipocalin 2 (Lcn2), Microarray FC [1]: −13.3 FC
- Matrix metalloproteinase 3 (Mmp3), Microarray FC [1]: −2.9 FC
- Metallothionein 1 (MT2), Microarray FC [1]: −5.5 FC
- NADPH oxidase 4 (Nox4), Microarray FC [1]: −3.2 FC
- Oncostatin receptor (Osmr), Microarray FC [1]: −2.6 FC
- Phospholipase A2 group VII (platelet-activating factor acetylhydrolase, plasma) (Pla2g7), Microarray FC [1]: −2.2 FC
- S100 calcium binding protein A8 (calgranulin A) (S100a8), Microarray FC [1]: −19.9 FC
- S100 calcium binding protein A9 (calgranulin B) (S100a9), Microarray FC [1]: −14.0 FC
- SET and MYND domain containing 1 (Smyd1), Microarray FC [1]: 2.7 FC
- Serine protease inhibitor 2-2 (Spi2-2) (Serpin3n), Microarray FC [1]: −9.7 FC
- Transformation related protein 53 inducible nuclear protein 1 (Trp53inp1), Microarray FC [1]: −3.5 FC
- Tubulin, alpha 4 (Tuba4), Microarray FC [1]: 5.8 FC
- FC Ankyrin repeat domain 47 (Ankrd47), C79906 [2]: −2.0 fold
- FC Procollagen, type IV, alpha 1 (Col4a1), AW536690 [2]: −2.4 fold
- FC cDNA, AV293532 [3]: −1.5 fold
- FC cDNA, BG073457 [3]: −1.9 fold
- FC cDNA, BI689897 [3]: −1.8 fold
- FC AT rich interactive domain 5B (Mrf1 like) (Arid5b), BB079486 [4]: −2.0 fold
- FC Actin binding LIM protein family, member 3 (Ablim3), BB667786 [4]: −2.4 fold
- FC Chloride intracellular channel 5 (Circ5), AA210377 [4]: −1.7 fold
- FC Fatty acid binding protein 4, adipocyte (Fabp4), BC002148 [4]: −2.1 fold
- FC cDNA, AK005293 [4]: −1.8 fold
- FC cDNA, BM215139 [4]: −1.7 fold
- FC Chitinase 3-like 3; chitinase 3-like 4, AY065557 [5]: −2.4 fold
- FC cDNA, BI683916 [5]: −2.6 fold
- FC Casitas B-lineage lymphoma b (Cblb), AV276986 [6]: −1.7 fold
- FC Choline kinase (Chk), NM_013490 [6]: −1.9 fold
- FC Coiled-coil domain containing 85A (Ccdc85a), AW060797 [6]: −2.0 fold
- FC Transglutaminase 2, C polypeptide (Tgm2), AW321975 [6]: −1.8 fold
- FC cDNA, AV228737 [6]: −2.1 fold
- FC cDNA, BB447627 [6]: −1.6 fold
- FC Adenosine deaminase (Ada), NM_007398 [7]: −2.4 fold
- FC CXC chemokine (angie2) (Cxcl13), AF030636 [7]: −2.2 fold
- FC EST, AV032095 [7]: −1.8 fold
- FC EST, BE630073 [7]: −2.0 fold
- FC cDNA, AI788755 [7]: −2.3 fold
- FC cDNA, BB431047 [7]: −2.2 fold
- FC Angiogenin, ribonuclease A family, member 1 (Ang1), AI385586 (mouse heart, vs isoproterenol only (CH), CH vs normal 2.1, second AI385586 line): −1.6 fold
- FC Amine oxidase, copper containing 3 (Aoc3), NM_009675 [8]: −2.4 fold
- FC CD14 antigen (CD14), NM_009841 [8]: −2.0 fold
- FC Cyclin G2 (Ccng2), U95826 [8]: −2.5 fold
- FC Flavin containing monooxygenase 1 (Fmo1), BC011229 [8]: −2.0 fold
- FC RAN binding protein 9 (Ranbp9), mRNA., NM_019930 [8]: −2.3 fold
- FC cDNA, BB408123 [8]: −2.0 fold
- FC cDNA, BB769119 [8]: −2.2 fold
